The values that follow come from patent US9145393B2, “Arylpyridinone ITK inhibitors for treating inflammation and cancer” (Confluence Life Sciences, Inc., priority 2014, dated 2015).

The test system of assay [1] is ITK mediated IL-2 release in Jurkat cells. Briefly: ITK IL-2 release assay in CD3/CD28-stimulated Jurkat cells. It is filed as cell-based. As to conditions: Homo sapiens, CD3/CD28 Dynabeads stimulation, overnight, read-out: IL-2 Production Inhibition IC50. The procedure:
This assay was based on the ability of a compound to inhibit ITK mediated IL-2 release. Jurkat cells were placed in wells of a 96-well plate at 500,000 per well in 120 μL medium (same as above). Compounds were added as 15 μL per well of 10× working stock solutions in medium with 1% DMSO (or medium with 1% DMSO for Controls) and placed in a 37° C. incubator for 2 hours. Stimulation used CD3/CD28 Dynabeads to activate the T cell receptor and mimic antigen-presenting cells. Beads were added at a ratio of 1 bead per cell, in 15 μL medium (or medium alone for unstimulated Control). After overnight incubation, the plates were centrifuged at 290×g for 5 min, then 100 μL per well of supernatant medium removed for IL-2 cytokine assay. To determine cell viability, to the remaining well Contents 50 μL of CellTiter-Glo reagent was added and luminescence determined. The IL-2 cytokine assay utilized an electochemiluminescence-based ELISA.

For a further assay, the target named is T1, ITK (Homo sapiens, UniProt Q08881).
T1 sequence (Q08881 1-620): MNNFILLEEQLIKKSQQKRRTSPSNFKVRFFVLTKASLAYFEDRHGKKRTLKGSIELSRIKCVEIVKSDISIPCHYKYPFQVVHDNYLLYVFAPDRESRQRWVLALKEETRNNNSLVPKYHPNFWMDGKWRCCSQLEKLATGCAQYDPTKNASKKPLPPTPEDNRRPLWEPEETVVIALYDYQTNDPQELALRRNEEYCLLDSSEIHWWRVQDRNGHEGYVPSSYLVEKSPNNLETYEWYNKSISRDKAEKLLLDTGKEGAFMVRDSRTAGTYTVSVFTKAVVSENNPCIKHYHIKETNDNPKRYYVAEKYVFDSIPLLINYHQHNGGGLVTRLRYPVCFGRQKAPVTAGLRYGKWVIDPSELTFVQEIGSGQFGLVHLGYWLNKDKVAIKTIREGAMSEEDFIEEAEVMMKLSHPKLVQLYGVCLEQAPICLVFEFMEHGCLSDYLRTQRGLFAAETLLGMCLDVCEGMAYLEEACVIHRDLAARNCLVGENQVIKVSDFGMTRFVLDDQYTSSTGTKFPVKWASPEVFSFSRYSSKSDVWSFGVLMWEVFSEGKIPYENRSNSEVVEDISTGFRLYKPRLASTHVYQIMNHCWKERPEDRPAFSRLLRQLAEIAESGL
The experiment in a line: ITK inhibitor binding potency (LanthaScreen TR-FRET competitive binding assay). As to conditions: pre-incubation condition not stated; read-out: ITK Inhibition IC50. An excerpt:
The ability of candidate compounds to interact with ITK is quantitated by a competitive binding assay using the LanthaScreen technology developed by Life Technologies. This assay is based on the binding of a proprietary, Alexa Fluor® 647-labeled, ATP-competitive kinase inhibitor (kinase tracer-236) to the ITK expression construct in the presence of a Europium-conjugated antibody, resulting in a FRET (fluorescence resonance energy transfer) signal. Displacement of the kinase tracer by compound results in a lower emission ratio upon excitation of the Europium chelate. Candidate compounds are designed as potential irreversible inhibitors of ITK, capable of ligating to an active site cysteine residue resulting in time dependent covalent binding. The time dependent nature of irreversible inhibition is investigated by performing the binding assay with and without a pre-incubation of compound and ITK. […] The inhibitory potency of candidate compounds is measured in 20 mM HEPES pH 7.5, 10 mM MgCl2, 0.01% BSA, 0.0005% Tween-20, and 2% DMSO in the presence of 10 nM ITK, 2 nM Eu-anti-GST antibody, and 50 nM kinase tracer-236 using a 384-well plate format. Background signal is defined in the absence of ITK and uninhibited signal is defined in the presence of vehicle (2% DMSO) alone. Compounds were evaluated in an 11-point dose-response ranging from 20 uM to 0.34 nM. The binding assays are performed under two preincubation Conditions to evaluate time dependence of inhibition. For the pre-incubation assay, ITK and Eu-anti-GST antibody are pre-incubated with compound or vehicle for two hours prior to the addition of kinase tracer. The non-preincubated assay is run under Conditions where ITK and Eu-anti-GST antibody are added to a mixture of compound and kinase tracer. IC50 values of compounds are determined using a 4 parameter logistical fit of emission ratio as a function of the concentration of compound.
Background: Time-resolved FRET reads energy transfer from a long-lived donor to a nearby acceptor.

Molecules are shown by their SMILES. Where a name gives a salt, the structure may show the parent alone.

Usually IC50 stands for the point on the concentration scale where inhibition reaches its midpoint. Turning to `C=CC(=O)N1CC(Nc2cc(-c3ccnc(NC)n3)c[nH]c2=O)C1` [Example 10, 3-((1-acryloylazetidin-3-yl)amino)-5-(2-(methylamino)pyrimidin-4-yl)pyridin-2(1H)-one], the IC50 (in assay [1]; on ITK) was at most 1 µM each time.
Turning to `CNc1cc(-c2c[nH]c(=O)c(NC3CN(C(=O)/C=C/CCOc4ccccc4)C3)c2)ccn1` [Example 20, (E)-2′-(Methylamino)-5-((1-(5-phenoxypent-2-enoyl)azetidin-3-yl)amino)-[3,4′-bipyridin]-6(1H)-one], the IC50 on ITK was at most 1 µM.
On the same count and under the same terms, as for `CNc1cc(-c2c[nH]c(=O)c(NC3CN(C(=O)/C=C/CN(C)C)C3)c2)ccn1` [Example 19, (E)-5-((1-(4-(Dimethylamino)but-2-enoyl)azetidin-3-yl)amino)-2′-(methylamino)-[3,4′-bipyridin]-6(1H)-one], the figure is at most 1 µM; as for `Cc1cc(NC(=O)c2cc(-c3c[nH]c(=O)c(NC4CN(C(=O)CCl)C4)c3)ccn2)ccc1C(C)C` [Example 17, 5-((1-(2-Chloroacetyl)azetidin-3-yl)amino)-N-(4-isopropyl-3-methylphenyl)-6-oxo-1,6-dihydro-[3,4′-bipyridine]-2′-carboxamide formate], over 1 µM; as for `C=CC(=O)N1CC(Nc2cc(-c3ccncc3)c[nH]c2=O)C1` [Example 5, 5-((1-Acryloylazetidin-3-yl)amino)-[3,4′-bipyridin]-6(1H)-one], at most 1 µM.
As to `CNc1cc(-c2c[nH]c(=O)c(NC3CN(C(=O)/C=C/Cc4ccccc4)C3)c2)ccn1` [Example 15, (E)-2′-(Methylamino)-5-((1-(4-phenylbut-2-enoyl)azetidin-3-yl)amino)-[3,4′-bipyridin]-6(1H)-one], the IC50 on ITK was over 1 µM.
The same measure, in the same setting: as for `CC/C=C/C(=O)N1CC(Nc2cc(-c3ccnc(NC)c3)c[nH]c2=O)C1` [Example 18, (E)-2′-(Methylamino)-5-((1-(pent-2-enoyl)azetidin-3-yl)amino)-[3,4′-bipyridin]-6(1H)-one], the figure is at most 1 µM; as for `C=CC(=O)N1CC(Nc2cc(-c3ccnc(C(=O)Nc4ccc(C(C)C)c(C)c4)c3)c[nH]c2=O)C1` [Example 16, 5-((1-Acryloylazetidin-3-yl)amino)-N-(4-isopropyl-3-methylphenyl)-6-oxo-1,6-dihydro-[3,4′-bipyridine]-2′-carboxamide hydrochloride], at most 1 µM; as for `CNc1cc(-c2c[nH]c(=O)c(NC3CN(C(=O)/C=C/c4ccccc4)C3)c2)ccn1` [Example 14, (E)-5-((1-Cinnamoylazetidin-3-yl)amino)-2′-(methylamino)-[3,4′-bipyridin]-6(1H)-one], over 1 µM.
Same read-out and setting: as for `C=CC(=O)N1CC(Nc2cc(-c3ccnc(C)c3)c[nH]c2=O)C1` [Example 7, 5-((1-acryloylazetidin-3-yl)amino)-2′-methyl-[3,4′-bipyridin]-6(1H)-one], the figure is at most 1 µM; as for `C=CC(=O)N1CC(Nc2cc(-c3cncc(OC)n3)c[nH]c2=O)C1` [Example 8, 3-((1-acryloylazetidin-3-yl)amino)-5-(6-methoxypyrazin-2-yl) pyridin-2(1H)-one], at most 1 µM.
On the same count and under the same terms, as for `C=CC(=O)N1CCC[C@@H](Nc2cc(-c3ccncc3)c[nH]c2=O)C1` [Example 2, (R)-5-((1-Acryloylpiperidin-3-yl)amino)-[3,4′-bipyridin]-6(1H)-one], the figure is over 1 µM.
In the case of `C=CC(=O)N1CC(Nc2cc(-c3ccnc(NC)c3)c[nH]c2=O)C1` [Example 9, 5-((1-acryloylazetidin-3-yl)amino)-2′-(methylamino)-[3,4′-bipyridin]-6(1H)-one], the IC50 (in assay [1]; at ITK) was at most 1 µM in each case.
Consider `C=CC(=O)N1CC[C@@H](Nc2cc(-c3ccncc3)c[nH]c2=O)C1` [Example 3, (R)-5-((1-Acryloylpyrrolidin-3-yl)amino)-[3,4′-bipyridin]-6(1H)-one], for which the IC50 at ITK is over 1 µM.
`C/C=C/C(=O)N1CC(Nc2cc(-c3ccncc3)c[nH]c2=O)C1` [Example 6, (E)-5-((1-(But-2-enoyl)azetidin-3-yl)amino)-[3,4′-bipyridin]-6(1H)-one]: on ITK, the IC50 was over 1 µM.
On the same count and under the same terms, as for `CNC(=O)/C=C/C(=O)N1CC(Nc2cc(-c3ccncc3)c[nH]c2=O)C1` [Example 12, (E)-N-methyl-4-oxo-4-(3-((6-oxo-1,6-dihydro-[3,4′-bipyridin]-5-yl)amino)azetidin-l-yl)but-2-enamide], the figure is over 1 µM.
Consider `C=CC(=O)N1CC(Nc2cc(-c3cncc(NC)n3)c[nH]c2=O)C1` [Example 11, 3-((1-acryloylazetidin-3-yl)amino)-5-(6-(methylamino)pyrazin-2-yl) pyridin-2(1H)-one], for which the IC50 (in assay [1]; at ITK) was at most 1 µM throughout.
As to `CNC/C=C/C(=O)N1CC(Nc2cc(-c3ccncc3)c[nH]c2=O)C1` [Example 13, (E)-5-((1-(4-(methylamino)but-2-enoyl)azetidin-3-yl)amino)-[3,4′-bipyridin]-6(1H)-one], on ITK, the concentration for half-maximal inhibition (IC50) was at most 1 µM.
For the compound `O=C(CCl)N1CC(Nc2cc(-c3ccncc3)c[nH]c2=O)C1` [Example 4, 5-((1-(2-Chloroacetyl)azetidin-3-yl)amino)-[3,4′-bipyridin]-6(1H)-one], the IC50 on ITK was at most 1 µM.
Take `O=C(CCl)N1CCC[C@@H](Nc2cc(-c3ccncc3)c[nH]c2=O)C1` [Example 1, (R)-5-((1-(2-Chloroacetyl)piperidin-3-yl)amino)-[3,4′-bipyridin]-6(1H)-one]: at ITK, the IC50 is at most 1 µM.
